Where “and” joins values, the source holds several entries; their conditions need not be identical. Equal entries are not always repeated. Where two headings read alike, the source gives them in different places.

Assay type in all cases: cell-based
The test system of one experiment is Glioma SNB19M (MGMT+). The experiment can be described thus: MTT assay for 7-day toxicity assay. Summed up:
(§1)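 MGMT-transfected or vector-control glioma cells were seeded at 650 cells/well, attached overnight, and exposed for 7 days at 37 °C to compound at final 0.5–1000 μM. Viability was read by MTT (0.4 mg/mL, 4 h) formazan absorbance, with a day-0 plate included.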
A general note: Formazan colour is commonly taken as a measure of viable cells.

In a further experiment the test system is Glioma SNB19V (MGMT−). In words: MTT assay for 7-day toxicity assay. Summed up:
as §1

Another experiment concerns Glioma U373M (MGMT+). In words: MTT assay for 7-day toxicity assay. Summed up:
as §1

The subject of the next experiment is Glioma U373V (MGMT low). In words: MTT assay for 7-day toxicity assay. In short, it runs like this:
as §1

The subject of experiment [1] is glioma MGMT− and MGMT+ cell lines. The experiment can be described thus: MTT assay, glioma lines as a whole. The following applies: glioma MGMT− and MGMT+ cell lines. The text has this: This assay was first described in Mosmann, T., 1983, “Rapid colorimetric assay for cellular growth and survival: Application to proliferation and cytotoxicity assays”, Journal of Immunological Methods, Vol. 65, Nos. 1-2, pp. 55-63.
Glioma cell lines, SNB19 and U373, both MGMT transfected (i.e., SNB19M and U373M) and vector controls (i.e., SNB19V and U373V); colorectal carcinoma cell lines, HCT116, HT29, and DLD1; melanoma cell line, SKMEL-28; breast cell line, MCF-7; and normal human fetal lung fibroblast cell line, MRC-5; were harvested at 60-80% confluence—during the logarithmic phase of growth.
Following harvesting, cells in suspension were gently syringed through a 23 gauge needle to obtain a near-single cell suspension. The desired cell seeding densities were used and added into 96-well plates in 180 μL culture medium if only one test compound was to be added, or 160 μL if two test compounds were to be added in combination, which were allowed to attach at 37° C. (5% CO2) overnight. For the 7 day assay, the cell seeding density for different cell lines was as follows: SNB19V, SNB19M: 650 cells/well; U373V, U373M: 650 cells/well; SNB19VR, U373VR: 650 cells/well; HCT116, DLD-1, SKMEL-28, MRC-5, MCF-7: 400 cells/well.
The two peripheral lanes were used as blank wells (cell free) and filled with 200 μL of medium in order to minimise medium evaporation from the plate. A separate time zero (T0) plate was set up alongside other plates. Serial dilutions in tissue culture medium of a 100 mM stock of test compound in DMSO were prepared immediately before each assay to ten times the final concentrations required, and then 20 μL was added to each well (200 μL total media per well) to achieve final concentrations of 0.5 μM, 1 μM, 5 μM, 10 μM, 50 μM, 100 μM, 500 μM, and 1000 μM. A minimum of four wells received the same test compound concentration. To control wells, including those in the T0 plate, 20 μL of medium was added. Previous assays had been carried out to verify that cell viability was not affected by the amount of DMSO added into the test compound-treated wells. A separate plate treated in the same way, but free of test compound, was used as a measure of cell viability at the time of drug addition (day 0).
After incubation at 37° C., 5% CO2 for 7 days (or immediately for the day 0 plate), cell viability was quantified using the MTT assay. 50 μL of sterile filtered MIT (3-(4,5-dimethylthiazol-2-yl)-2,5-diphenyltetrazolium bromide) (2 mg/mL in phosphate buffered saline) were added to each well (final concentration 0.4 mg/mL) and the plates were re-incubated for 4 hours to allow metabolic conversion of MTT by dehydrogenases in viable cells to insoluble formazan crystals. The medium and any unconverted MTT was aspirated, 150 μL of DMSO was added to each well, and the plates were shaken on a plate shaker (Stuart Scientific 503) to ensure complete formazan solubilisation.
The intensity of absorbance is directly proportional to cell viability. A linear relationship exists between cell number and the amount of formazan and so the mean absorbance determined for each well of the same concentration can be used as a quantitative measure of viable cells compared to the controls. A graph of absorbance against drug concentration was plotted and the test compound concentration (GI50) causing 50% inhibition of control cell growth (absorbance increase from day 0) was calculated by interpolation.

Setting [2] is: 168 h, Glioma SNB19M (MGMT+), 7-day MTT, single determinations.
Where [3] appears, read: Glioma SNB19V (MGMT−), 7-day MTT, single determinations.
Where [4] appears, read: Glioma SNB19M (MGMT+), read-out: GI50.
Setting [5] is: Glioma SNB19V (MGMT−), read-out: GI50.
Setting [6] is: Glioma U373M (MGMT+), read-out: GI50.
[7] abbreviates: Glioma U373V (MGMT low), read-out: GI50.
The mark [8] stands for this setting: 168 h, Glioma SNB19M (MGMT+), 7-day MTT, single determinations, read-out: GI50.
The mark [9] stands for this setting: Glioma SNB19M (MGMT+), 7-day MTT, single determinations, read-out: GI50.
The mark [10] stands for this setting: 168 h, Glioma U373M (MGMT+), 7-day MTT, single determinations, read-out: GI50.
Setting [11] is: Glioma U373M (MGMT+), 7-day MTT, single determinations, read-out: GI50.

`Cn1nnc2c(C(N)=O)ncn2c1=O` [TMZ, 3-Methyl-4-oxo-3,4-dihydro-imidazo[5,1-d][1,2,3,5]tetrazine-8-carboxylic acid amide, reference compound]: the 50% growth inhibitory concentration (GI50) (as a rule, the concentration giving 50% growth inhibition) came out at 464 µM in the experiment on Glioma SNB19M (MGMT+) (setting [2]); 470 µM in the experiment with Glioma SNB19M (MGMT+) (Glioma SNB19M (MGMT+)); 470 µM with Glioma SNB19M (MGMT+) (read-out: TMZ GI50 Average, Glioma SNB19M (MGMT+), average of Table 1); 35.7 µM in the experiment with Glioma SNB19V (MGMT−) (Glioma SNB19V (MGMT−)); 27.6 µM in the experiment on Glioma SNB19V (MGMT−) (setting [3]); 35.7 µM in the experiment on Glioma SNB19V (MGMT−) (read-out: TMZ GI50 Average, Glioma SNB19V (MGMT−), average of Table 1). Further, the GI50 came to 369 µM in the experiment on Glioma U373M (MGMT+) (Glioma U373M (MGMT+)); 369 µM with Glioma U373M (MGMT+) (read-out: TMZ GI50 Average, Glioma U373M (MGMT+), average of Table 1); 68 µM in the experiment with Glioma U373V (MGMT low) (Glioma U373V (MGMT low)); 68 µM in the experiment on Glioma U373V (MGMT low) (read-out: TMZ GI50 Average, Glioma U373V (MGMT low), average of Table 1). In addition, the activity in words result in experiment [1] is on record as “demonstrably more active in the glioma lines which are MGMT−”.
`C[Si](C)(C)CCOCn1nnc2c(C(N)=O)ncn2c1=O` [PX-021]: the concentration for 50% growth inhibition (GI50) in the experiment with Glioma SNB19M (MGMT+) (setting [4]) was 26.7 µM and 29.1 µM; with Glioma SNB19V (MGMT−) (setting [5]), 36 µM and 26.9 µM and 26.8 µM; in the experiment on Glioma U373M (MGMT+) (setting [6]), 27.2 µM and 23.6 µM and 21.9 µM; in the experiment on Glioma U373V (MGMT low) (setting [7]) it was 28.2 µM and 22.3 µM and 25.5 µM. In addition, the activity in words result in experiment [1] is recorded as “surprising efficacious”.
On to `COCn1nnc2c(C(N)=O)ncn2c1=O` [PX-020], for which the GI50 is 28.7 µM and 26.6 µM and 43.4 µM in the experiment with Glioma SNB19M (MGMT+) (setting [4]); 26.5 µM and 39.6 µM in the experiment on Glioma U373M (MGMT+) (setting [6]); 21.3 µM and 22 µM and 30.2 µM and 30.4 µM in the experiment with Glioma U373V (MGMT low) (setting [7]). Also, in experiment [1], the activity in words entry is recorded as “surprising efficacious”.
Take `C[C@H](c1ccccc1)n1nnc2c(C(N)=O)ncn2c1=O` [BB-001, (R)-3-(-1-Phenylethyl)-8-carbamoylimidazotetrazin-4-one]: the GI50 in the experiment with Glioma SNB19M (MGMT+) (setting [2]) amounted to 46.1 µM; in the experiment with Glioma SNB19M (MGMT+) (Glioma SNB19M (MGMT+), 7-day MTT, single determinations), 53.4 µM; in the experiment on Glioma SNB19V (MGMT−) (168 h, Glioma SNB19V (MGMT−), 7-day MTT, single determinations), 33.6 µM; in the experiment with Glioma SNB19V (MGMT−) (setting [3]), 31.8 µM; in the experiment with Glioma U373M (MGMT+) (168 h, Glioma U373M (MGMT+), 7-day MTT, single determinations), 67.1 µM; in the experiment on Glioma U373M (MGMT+) (Glioma U373M (MGMT+), 7-day MTT, single determinations) it was 79.6 µM. Further, the GI50 is 49 µM in the experiment with Glioma U373V (MGMT low) (168 h, Glioma U373V (MGMT low), 7-day MTT, single determinations) and 71.3 µM with Glioma U373V (MGMT low) (Glioma U373V (MGMT low), 7-day MTT, single determinations).
With `CCOC(=O)Cn1nnc2c(C(N)=O)ncn2c1=O` [PX-016], the GI50 is 66.7 µM with Glioma SNB19M (MGMT+) (setting [8]); 54 µM and 61.7 µM and 61.8 µM in the experiment on Glioma SNB19M (MGMT+) (setting [9]); 55.2 µM with Glioma SNB19V (MGMT−) (168 h, Glioma SNB19V (MGMT−), 7-day MTT, single determinations, read-out: GI50); 48.7 µM and 57.3 µM and 48.4 µM with Glioma SNB19V (MGMT−) (Glioma SNB19V (MGMT−), 7-day MTT, single determinations, read-out: GI50); 49.6 µM in the experiment on Glioma U373M (MGMT+) (setting [10]); 62.5 µM and 54.7 µM in the experiment on Glioma U373M (MGMT+) (setting [11]). The 50% growth inhibitory concentration (GI50) in the experiment with Glioma U373V (MGMT low) (168 h, Glioma U373V (MGMT low), 7-day MTT, single determinations, read-out: GI50) is 49.9 µM; with Glioma U373V (MGMT low) (Glioma U373V (MGMT low), 7-day MTT, single determinations, read-out: GI50) it was 59.6 µM and 73.8 µM and 69.5 µM. For the same molecule, in experiment [1], the activity in words result is reported as “surprising efficacy”.
Regarding `C[S+]([O-])Cn1nnc2c(C(N)=O)ncn2c1=O` (stereo not shown) [UU-003, 3-Methanesulfinylmethyl-4-oxo-3,4-dihydro-imidazo[5,1-d][1,2,3,5]tetrazine-8-carboxylic acid amide], the GI50 in the experiment on Glioma SNB19V (MGMT−) (setting [5]) was 30.3 µM and 38.1 µM and 25.3 µM and 21.8 µM; with Glioma U373M (MGMT+) (setting [6]), 4.6 µM and 8.6 µM and 7.6 µM and 8.2 µM. Further, the activity in words result in experiment [1] is on record as “surprising efficacy”.
In the case of `C#CCn1nnc2c(C(N)=O)ncn2c1=O` [EE-001, 3-Propargyl-8-carbamoylimidazotetrazin-4-one], the GI50 in the experiment on Glioma SNB19M (MGMT+) (setting [8]) is 26.9 µM; with Glioma SNB19M (MGMT+) (setting [9]) it was 30.6 µM and 41.6 µM and 52.1 µM; in the experiment on Glioma U373M (MGMT+) (setting [10]), 45.1 µM; with Glioma U373M (MGMT+) (setting [11]), 42.8 µM and 24.6 µM and 31.7 µM. Besides, in experiment [1], the activity in words entry was “more potent than TMZ”.
As for `NC(=O)c1ncn2c(=O)n(CCl)nnc12` [PX-030], the GI50 in the experiment on Glioma SNB19M (MGMT+) (setting [4]) was 36.6 µM and 25.4 µM; in the experiment with Glioma SNB19V (MGMT−) (setting [5]), 44.6 µM and 24.6 µM; in the experiment with Glioma U373M (MGMT+) (setting [6]), 23.7 µM and 25.1 µM; in the experiment on Glioma U373V (MGMT low) (setting [7]), 34.8 µM and 23.8 µM.
